Assay [1] has as its target T1, CDK7/CycH/MAT1 (Homo sapiens, UniProt P50613).
T1 construct: purchased ProQinase 0366-0360-4
Kind of assay: Kinase Glo Assay. The class given is biochemical. To be noted: Kinase-Glo Assay was used (compounds marked *), ATP 1 μM, 60 minutes at room temperature. The procedure:
(§1) Assay Buffer: 50 mM HEPES, 3 mM MgCl2, 3 mM MnCl2, 1 mM DTT, 3 μM Na3VO4, pH 7.5
Kinase-Glo™ Assay (Promega #: V6711): ATP: 10 mM, Kinase-Glo™ Reagent 384-well white assay plates
A ten point serial dilution of compound was prepared at 5× concentration in assay buffer with the final assay concentrations starting at 30 μM, 10 μM, 3 μM, 1 μM . . . 0 μM. Enzyme and ATP were used at 40 ng and 1 μM, respectively. The assay plate was set up by mixing the components in a total reaction volume of 10 μL per well. The plate was centrifuged gently for 10 seconds and incubated at room temperature (RT) for 60 minutes in the dark. The Kinase-Glo Reagent was added and incubated as recommended. The reaction was quantified by measuring luminescence on the Perkin Elmer Envision plate reader. Data was analyzed using Graphpad Prism 7 software.

Assay [2] addresses T1, CDK7/CycH/MAT1. Kind of assay: Kinase ADP-Glo Assay. The class given is biochemical. To be noted: ADP-Glo assay (compounds without *), ATP 1 μM, 60 minutes at room temperature. How it is done: as §1
Substrate RB: CTF Peptide (ProQinase #: 0040-0000-6)
ADP-Glo™ Assay (Promega #: V9101): ATP: 10 mM, ADP-Glo™ Reagent, Kinase Detection Reagent
384-well white assay plates
A ten point serial dilution of compound was prepared at 5× concentration in assay buffer with the final assay concentrations starting at 30 μM, 10 μM, 3 μM, 1 μM . . . 0 μM. Enzyme, substrate, and ATP were used at 40 ng, 200 ng (or 400 ng)^+ and 1 μM, respectively. The assay plate was set up by mixing the components in a total reaction volume of 10 μL per well. The plate was centrifuged gently for 10 seconds and incubated at room temperature (RT) for 60 minutes in the dark. The ADP-Glo Reagent and kinase detection reagent were added and incubated as recommended. The reaction was quantified by measuring luminescence on the Perkin Elmer Envision plate reader. Data was analyzed using Graphpad Prism 7 software. *With CDK2 enzyme, 400 ng of substrate was used.
(In general: ADP-Glo first removes unused ATP, then detects ADP through luciferase.)

SMILES strings stand for the structures. Structures can show the parent of a compound that is named as a salt.

T1 sequence (P50613 whole entry): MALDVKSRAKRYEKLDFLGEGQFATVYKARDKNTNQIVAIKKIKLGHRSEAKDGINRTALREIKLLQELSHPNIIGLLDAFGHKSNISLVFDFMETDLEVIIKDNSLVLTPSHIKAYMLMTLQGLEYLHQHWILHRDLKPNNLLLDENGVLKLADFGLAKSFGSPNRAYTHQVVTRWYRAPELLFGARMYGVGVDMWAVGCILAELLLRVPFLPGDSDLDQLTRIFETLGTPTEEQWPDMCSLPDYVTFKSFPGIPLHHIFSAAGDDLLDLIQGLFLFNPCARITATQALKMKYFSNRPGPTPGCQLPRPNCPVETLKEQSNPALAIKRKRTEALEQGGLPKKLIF
T1 sequence (P51946 whole entry partner): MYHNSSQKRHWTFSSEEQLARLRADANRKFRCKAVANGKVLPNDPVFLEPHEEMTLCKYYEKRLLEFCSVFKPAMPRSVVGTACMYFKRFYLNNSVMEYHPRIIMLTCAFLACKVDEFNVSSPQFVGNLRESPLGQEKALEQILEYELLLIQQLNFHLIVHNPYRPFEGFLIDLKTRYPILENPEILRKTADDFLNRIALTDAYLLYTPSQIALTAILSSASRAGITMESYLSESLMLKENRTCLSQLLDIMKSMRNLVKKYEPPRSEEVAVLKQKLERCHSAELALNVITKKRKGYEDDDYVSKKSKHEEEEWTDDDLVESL
T1 sequence (P51948 whole entry partner): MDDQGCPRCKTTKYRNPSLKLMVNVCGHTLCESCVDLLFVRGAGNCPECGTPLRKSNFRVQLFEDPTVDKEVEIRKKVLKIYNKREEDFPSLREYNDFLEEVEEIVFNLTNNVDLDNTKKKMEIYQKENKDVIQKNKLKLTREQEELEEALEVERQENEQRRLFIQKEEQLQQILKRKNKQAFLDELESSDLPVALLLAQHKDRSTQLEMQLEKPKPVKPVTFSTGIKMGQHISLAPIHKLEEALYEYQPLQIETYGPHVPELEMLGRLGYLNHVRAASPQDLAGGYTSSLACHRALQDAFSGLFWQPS

Take `Clc1cccc(Nc2cc(N[C@H]3CCCNC3)nc3c(Cl)cnn23)c1` [Compound I-1, (S)-3-chloro-N^7-(3 - chlorophenyl)-N^5-(piperidin-3-yl)pyrazolo[1,5-a]pyrimidine-5,7-diamine]: the IC50 against CDK7/CycH/MAT1 [1] was 100 to 1000 nM.

As for `Fc1cccc(Nc2cc(N[C@H]3CCCNC3)nc3c(Cl)cnn23)c1` [Compound I-2, (S)-3-chloro-N^7-(3-fluorophenyl)-N^5-(piperidin-3-yl)pyrazolo[1,5-a]pyrimidine-5,7-diamine], the half-inhibitory concentration (IC50) against CDK7/CycH/MAT1 [1] is less than 100 nM.

The compound `O[C@H]1CCNC[C@@H]1Nc1cc(Nc2cccc(F)c2)n2ncc(Cl)c2n1` [Compound I-3, (3S,4S)-3-((3-chloro-7-((3-fluorophenyl)amino)pyrazolo [1,5-a]pyrimidin-5-yl)amino)piperidin-4-ol] registered a concentration for half-maximal inhibition (IC50) against CDK7/CycH/MAT1 [1] greater than 1000 nM.

For `Fc1cccc(Nc2cc(N[C@H]3CCCCNC3)nc3c(C4CC4)cnn23)c1` [Compound I-5, (S)-N^5-(azepan-3-yl)-3-cyclopropyl-N^7-(3-fluorophenyl)pyrazolo[1,5-a]pyrimidine-5,7-diamine], the IC50 at CDK7/CycH/MAT1 [1] was greater than 1000 nM.

On CDK7/CycH/MAT1 [1], `Fc1cccc(Nc2cc(N[C@H]3CCCNC3)nc3c(C4CC4)cnn23)c1` [Compound I-19, hydrochloride] had a 50% inhibitory concentration (IC50) of 100 to 1000 nM.

As for `Fc1cccc(Nc2cc(N[C@H]3CCCNC3)nc3c(C4CCC4)cnn23)c1` [Compound I-23, (S)-3-cyclobutyl-N^7-(3-fluorophenyl)-N^5-(piperidin-3-yl)pyrazolo[1,5-a]pyrimidine-5,7-diamine hydrochloride], the half-inhibitory concentration (IC50) against CDK7/CycH/MAT1 [1] lay within 100 to 1000 nM.

For `O[C@H]1CCNC[C@@H]1Nc1cc(Nc2cccc(F)c2)n2ncc(C3CCC3)c2n1` [Compound I-24, (3S,4S)-3-((3-cyclobutyl-7-((3-fluorophenyl)amino)pyrazolo [1,5-a]pyrimidin-5-yl)amino)piperidin-4-ol hydrochloride], the IC50 against CDK7/CycH/MAT1 [1] was greater than 1000 nM.

In the case of `N#Cc1cnn2c(NCc3cc(Cl)cc(Cl)c3)cc(N[C@H]3CCCNC3)nc12` [Compound I-26, (S)-7-((3,5-dichlorobenzyl)amino)-5-((piperidin-3-yl)amino)pyrazolo[1,5-a]pyrimidine-3-carbonitrile], the IC50 at CDK7/CycH/MAT1 [1] was in the range of 100 to 1000 nM.

`N#Cc1cnn2c(NCc3cc(F)cc(Cl)c3)cc(N[C@H]3CCCNC3)nc12` [Compound I-27, (S)-7-((3-chloro-5-fluorobenzyl)amino)-5-((piperidin-3-yl)amino)pyrazolo[1,5-a]pyrimidine-3-carbonitrile] gave a half-inhibitory concentration (IC50) at CDK7/CycH/MAT1 [1] of 100 to 1000 nM.

At CDK7/CycH/MAT1 [1], `N#Cc1cnn2c(NCc3cccc(Cl)c3)cc(N[C@H]3CCCNC3)nc12` [Compound I-28, (S)-7-((3-chlorobenzyl)amino)-5-((piperidin-3-yl)amino)pyrazolo[1,5-a]pyrimidine-3-carbonitrile] displayed a concentration for half-maximal inhibition (IC50) of 100 to 1000 nM.

`Fc1cccc(CNc2cc(N[C@H]3CCCNC3)nc3c(C4CC4)cnn23)c1` [Compound I-32, (S)-3-cyclopropyl-N^7-(3-fluorobenzyl)-N^5-(piperidin-3-yl)pyrazolo[1,5-a]pyrimidine-5,7-diamine hydrochloride] gave an IC50 against CDK7/CycH/MAT1 [1] of 100 to 1000 nM.

On CDK7/CycH/MAT1 [1], `OCCN1CCC[C@H](Nc2cc(NCc3cccc(F)c3)n3ncc(C4CC4)c3n2)C1` [Compound I-33, (S)-2-(3-((3-cyclopropyl-7-((3-fluorobenzyl)amino)pyrazolo [1,5-a]pyrimidin-5-yl)amino)piperidin-1-yl)ethan-l-ol] came in with an IC50 of 100 to 1000 nM.

At CDK7/CycH/MAT1 [2], `Cc1cc(Nc2cc(O[C@H]3CCCNC3)nc3c(C4CC4)cnn23)cc(C(F)(F)F)c1` [Compound I-61, (S)-3-cyclopropyl-N-(5-methyl-3-trifluoromethylphenyl)-5-((piperidin-3-yl)oxy)pyrazolo[1,5-a]pyrimidin-7-amine] displayed an IC50 of 100 to 1000 nM.

On CDK7/CycH/MAT1 [2], `Cc1cc(Nc2cc(N[C@H]3CCCNC3)nc3c(C4CC4)cnn23)cc(C(F)(F)F)c1` [Compound I-62, (S)-3-cyclopropyl-N^7-(5-methyl-3-trifluoromethylphenyl)-N^5-(piperidin-3-yl)pyrazolo[1,5-a]pyrimidine-5,7-diamine] yielded an IC50 of 100 to 1000 nM.

Compound `Cc1cc(Nc2cc(N[C@H]3CCCNC3)nc3c(C4CCC4)cnn23)cc(C(F)(F)F)c1` [Compound I-63, (S)-3-cyclobutyl-N^7-(5-methyl-3-trifluoromethylphenyl)-N^5-(piperidin-3-yl)pyrazolo[1,5-a]pyrimidine-5,7-diamine] returned a concentration for half-maximal inhibition (IC50) against CDK7/CycH/MAT1 [2] of less than 100 nM.

Consider `Fc1cc(Nc2cc(O[C@H]3CCCNC3)nc3c(C4CC4)cnn23)cc(C(F)(F)F)c1` [Compound I-64, (S)-3-cyclopropyl-N-(5-fluoro-3-trifluoromethylphenyl)-5-((piperidin-3-yl)oxy)pyrazolo[1,5-a]pyrimidin-7-amine], for which the concentration for half-maximal inhibition (IC50) against CDK7/CycH/MAT1 [2] was in the range of 100 to 1000 nM.

Regarding `Fc1cc(Nc2cc(O[C@H]3CCCNC3)nc3c(C4CCC4)cnn23)cc(C(F)(F)F)c1` [Compound I-65, (S)-3-cyclobutyl-N-(5-fluoro-3-trifluoromethylphenyl)-5-((piperidin-3-yl)oxy)pyrazolo[1,5-a]pyrimidin-7-amine], the IC50 against CDK7/CycH/MAT1 [2] was less than 100 nM.

Take `Cc1cc(Nc2cc(O[C@H]3CCCNC3)nc3c(C4CCC4)cnn23)cc(C(F)(F)F)c1` [Compound I-66, (S)-3-cyclobutyl-N-(5-methyl-3-trifluoromethylphenyl)-5-((piperidin-3-yl)oxy)pyrazolo[1,5-a]pyrimidin-7-amine]: the IC50 against CDK7/CycH/MAT1 [2] was less than 100 nM.

The compound `Cc1cc(C#N)cc(Nc2cc(N[C@H]3CCCNC3)nc3c(C4CC4)cnn23)c1` [Compound I-67, (S)-3-((3-cyclopropyl-5-((piperidin-3-yl)amino)pyrazolo[1,5-a]pyrimidin-7-yl)amino)-5-methylbenzonitrile] registered a half-inhibitory concentration (IC50) at CDK7/CycH/MAT1 [2] of 100 to 1000 nM.

For the compound `Cc1cc(C#N)cc(Nc2cc(N[C@H]3CCCNC3)nc3c(C4CCC4)cnn23)c1` [Compound I-68, (S)-3-((3-cyclobutyl-5-((piperidin-3-yl)amino)pyrazolo[1,5-a]pyrimidin-7-yl)amino)-5-methylbenzonitrile], the half-inhibitory concentration (IC50) at CDK7/CycH/MAT1 [2] is less than 100 nM.

As for `Cc1cc(C#N)cc(Nc2cc(O[C@H]3CCCNC3)nc3c(C4CC4)cnn23)c1` [Compound I-69, (S)-3-((3-cyclopropyl-5-((piperidin-3-yl)oxy)pyrazolo [1,5-a]pyrimidin-7-yl)amino)-5-methylbenzonitrile], on CDK7/CycH/MAT1 [2], the IC50 was less than 100 nM.

In turn, `Cc1cc(C#N)cc(Nc2cc(O[C@H]3CCCNC3)nc3c(C4CCC4)cnn23)c1` [Compound I-70, (S)-3-((3-cyclobutyl-5-((piperidin-3-yl)oxy)pyrazolo[1,5-a]pyrimidin-7-yl)amino)-5-methylbenzonitrile] displayed a half-inhibitory concentration (IC50) against CDK7/CycH/MAT1 [2] of less than 100 nM.

What is called IC50 is the concentration needed to halve the response being measured. A higher IC50 goes with a need for much substance.

These data come from patent US20220144841A1, “TRISUBSTITUTED PYRAZOLO [1,5-A] PYRIMIDINE COMPOUNDS AS CDK7 INHIBITORS” (THE TRANSLATIONAL GENOMICS RESEARCH INSTITUTE, priority 2019, published 2022).
